Measured values from patent US8022180B2, “Method for preventing and treating Alzheimer's disease” (Affiris Forschungs-und Entwicklungs GmbH, priority 2004, dated 2011).
Where no end group is shown, it is not given here. [ ]: non-standard residue; d: D form. Tle = CC(C)(C)[C@H](N)C(=O)O

Assays:
[1] = tested on: DAEFRH (SEQ ID NO: 26)-specific mAb; assay: ELISA with peptide libraries (detection by biotinylated DAEFRH-specific mAb); type: binding, mice; details: mimotopes from libraries 1-3
From the text: (§1) Mice are vaccinated with the 6mer peptide DAEFRH (SEQ ID NO: 26) (natural N-terminal Aβ42 sequence) linked to the protein bovine serum albumin BSA (to make use of the hapten-carrier-effect), emulsified in CFA (first injection) and IFA (booster injections). DAEFRH (SEQ ID NO: 26)-peptide-specific, antibody-producing hybridomas are detected by ELISA (DAEFRH (SEQ ID NO: 26)-peptide-coated ELISA plates).
As mentioned above, peptide libraries 1, 2, and 3 are generated with an Applied Biosystems 431A peptide synthesizer following classical Fmoc-chemistry. The commercially available peptide library 4 is generated according to the manufacturer's description (see above and under www.mimotopes.com). The 90 peptides are C-terminally linked to a pin.
The ELISA with each of the peptide libraries have been carried out following standard protocols:
The peptide library is dissolved in 100% DMSO (final concentration 10 mg/ml).
The peptide solution is further diluted in PBS.
The peptide mixture is coated overnight (4° C.) onto ELISA plates (Nunc Maxisorp, Germany), starting with 500 μg/well, and titrated to 100 ng/well.
The plates are washed 3× times with PBS/Tween 20 (0.1% v/v).
The plates are blocked with PBS/BSA (2 h at room temperature).
The plates are washed 3× times with PBS/Tween.
The plates are incubated with biotinylated DAEFRH (SEQ ID NO: 26)-specific mAb (10 μg/ml in PBS) for 4 h at room temperature.
The plates are incubated with streptavidin-horseradish-peroxidase (30 min at room temperature).
The plates are washed 5× times with PBS/Tween.
The plates are incubated with ABTS+H2O2 (0.1% w/v; 10 to 45 min) and the reaction is stopped with citric acid followed by photometric evaluation (wavelength 405 nm).

[2] = tested on: monoclonal antibody specific for the natural N-terminal Aβ42 sequence DAEFRH; assay: Inhibition assay: mimotope peptides compete with plate-bound DAEFRH-BSA for recognition by the biotinylated monoclonal antibody (ELISA); type: binding, mice; design: key to inhibition (s/m/—): s: strong inhibition; m: moderate inhibition; —: no inhibition; details: for inhibition of epitope recognition by the monoclonal antibody (in words): FIGS. 2-9; for Inhibitory capacity of mimotopes: summary Tables 1 and 2, in words
From the text: 1.: Generation of Monoclonal Antibodies (mAb) to Detect Aβ42-Derived Peptide Species with Free N-Terminus (Free Aspartic Acid at the N-Terminus)
as §1
(§2) FIGS. 2 and 3 describe the results of inhibition assays performed with mimotope peptides included in and obtained from the 5 libraries (as described). The mimotope peptides compete with the original epitope for recognition by the monoclonal antibody. Original epitope and mimotope peptides contain an additional C at the C-terminus for coupling to a protein carrier (if desired).
(§3) After blocking with PBS/BSA 1% (200 μl/well, 12 h, 4° C.), the plates are washed 3× times with PBS/Tween. Then, biotinylated monoclonal antibody (1:2000, 50 μl/well) and peptides (50 μl/well) at 50, 5, 0.5, 0.05, 0.005, and 0.0005 μg/ml are added for 20 min. at 37° C. The plates are washed 3× times with PBS/Tween and are incubated with horseradish peroxidase (HRP)-labeled streptavidin (100 μl/well, 30 min, RT). The plates are washed 5× times with PBS/Tween and are incubated with ABTS+H2O2 (0.1% w/v, 10 to 45 min) and the reaction is stopped with citric acid followed by photometric evaluation (wavelength 405 nm).
as §2, with “4” for “2”, “5” for “3”, “C-terminus (position 7)” for “C-terminus”
as §3, with “different concentrations” for “50, 5, 0.5, 0.05, 0.005, and 0.0005 μg/ml”
as §2, with “6 to 8” for “2 and 3”, “2” for “5”, “described above).” for “described).”, “C-terminus (position 7 or position 8, respectively)” for “C-terminus”

Compound | detection by the monoclonal antibody [1] | other results
EVDYHR | can be detected by the monoclonal antibody | 
DVDYHR | can be detected by the monoclonal antibody | 
DLDYHR | can be detected by the monoclonal antibody | 
DVDYRR | can be detected by the monoclonal antibody | 
DIDYRR | can be detected by the monoclonal antibody | 
ELDYHR | can be detected by the monoclonal antibody | 
DLDYRR | can be detected by the monoclonal antibody | 
EIDYHR | can be detected by the monoclonal antibody | 
CC[C@H](C)[C@H](NC(=O)[C@H](CCCCN)NC(=O)[C@H](CC(C)C)NC(=O)[C@H](CCC(=O)O)NC(=O)[C@H](CCCCN)NC(=O)[C@@H](N)CC(=O)O)C(=O)N[C@@H](CS)C(=O)O [Peptide 1236, DKELKI] |  | inhibition of epitope recognition by the monoclonal antibody (in words) [2]: block epitope recognition; Inhibitory capacity of mimotopes [2]: weak
DKE(tBuGly)R (DKE[Tle]R) [Peptide 4061] |  | inhibition of epitope recognition by the monoclonal antibody (in words) [2]: not inhibitory at the concentrations tested; inhibition (s/m/—) ([2]; peptides of the new screening round and 5mers with non natural amino acids): —
DIDYHR | can be detected by the monoclonal antibody | 
C[C@@H](O)[C@H](NC(=O)[C@H](CCCNC(=N)N)NC(=O)[C@H](Cc1ccccc1)NC(=O)[C@H](CCC(=O)O)NC(=O)[C@H](Cc1c[nH]c2ccccc12)NC(=O)[C@@H](N)CO)C(=O)N[C@@H](CS)C(=O)O [Peptide 4002, SWEFRT] |  | inhibition of epitope recognition by the monoclonal antibody (in words) [2]: block epitope recognition; IC50 (inhibition of monoclonal antibody binding to the original epitope) ([2]; competition ELISA, plate-bound DAEFRH-BSA, peptides 20 min at 37° C.): less than 0.4 μg/ml; Inhibitory capacity of mimotopes [2]: strong
